In the supplement of paper PMC8967900:

Columns and labels:
Assay in all cases: selective drug sensitivity score (sDSS, relative to normal bone marrow) (sDSS (score)); higher = more potent and effective on the cell line relative to normal bone marrow cells
Conditions in all cases: 72 h
380 = system: 380
697 = system: 697
ALL-SIL = system: ALL-SIL
CCRF-CEM = system: CCRF-CEM
COG-LL-319h = system: COG-LL-319h
COG-LL-332h = system: COG-LL-332h
HAL-01 = system: HAL-01
HPB-ALL = system: HPB-ALL
JURKAT = system: JURKAT
KARPAS-45 = system: KARPAS-45
KASUMI-10 = system: KASUMI-10
KASUMI-2 = system: KASUMI-2
KOPN-8 = system: KOPN-8
MHH-CALL-2 = system: MHH-CALL-2
MHH-CALL-4 = system: MHH-CALL-4
MOLT-14 = system: MOLT-14
NALL-1 = system: NALL-1
NALM-6 = system: NALM-6
P12-ICHIKAWA = system: P12-ICHIKAWA
PF-382 = system: PF-382
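Further: ALL cell lines in 384-well plates, five doses spanning 10,000-fold, each plate scaled between vehicle and 100 µmol/L benzalkonium chloride controls, sDSS an adapted area-under-curve metric.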

SMILES | selective drug sensitivity score 380 | selective drug sensitivity score 697 | selective drug sensitivity score (ALL-SIL) | selective drug sensitivity score (CCRF-CEM) | selective drug sensitivity score (COG-LL-319h) | selective drug sensitivity score (COG-LL-332h) | selective drug sensitivity score (HAL-01) | selective drug sensitivity score (HPB-ALL) | selective drug sensitivity score (JURKAT) | selective drug sensitivity score (KARPAS-45) | selective drug sensitivity score (KASUMI-10) | selective drug sensitivity score (KASUMI-2) | selective drug sensitivity score (KOPN-8) | selective drug sensitivity score (MHH-CALL-2) | selective drug sensitivity score (MHH-CALL-4) | selective drug sensitivity score (MOLT-14) | selective drug sensitivity score (NALL-1) | selective drug sensitivity score (NALM-6) | selective drug sensitivity score (P12-ICHIKAWA) | selective drug sensitivity score (PF-382)
CO[C@H]1C(=O)[C@]2(C)[C@@H](OC)C[C@H]3OC[C@@]3(OC(C)=O)[C@H]2[C@H](OC(=O)c2ccccc2)[C@]2(O)C[C@H](OC(=O)[C@H](O)[C@@H](NC(=O)OC(C)(C)C)c3ccccc3)C(C)=C1C2(C)C [Cabazitaxel] (top concentration 1000 nM) | 25.7 | 23.7 | 19.3 | 20.5 | 16.9 | 22.1 | 11.7 | 11.6 | 18.3 | 18.9 | 12.4 | 17.5 | 17.9 | 15.9 | 3.58 | 22.7 | 11.4 | 15.9 | 3.08 | 10.9
Cc1cc([C@@H](C)Nc2ccccc2C(=O)O)c2nc(N3CCOCC3)cc(=O)n2c1 [AZD-6482] (top concentration 2500 nM) | 4.72 | 3.12 | -0.28 | 2.02 | 13.6 | 1.32 | 6.62 | 2.92 | -0.28 | 1.82 | -0.28 | 10.2 | 8.22 | 2.82 | 1.92 | -0.28 | 7.42 | 5.62 | 0.42 | 2.62
Nc1nc(NC2CC2)cc(-c2cccc(Cl)c2Cl)n1 [TH588] (top concentration 25000 nM) | -0.58 | 8.72 | 14.7 | 7.52 | 3.82 | 6.82 | -0.58 | 3.92 | 15.2 | 8.12 | 6.22 | -0.58 | 7.22 | -0.58 | -0.58 | 10.8 | -0.28 | -0.58 | 3.72 | 6.72
Cc1nn(C)c(COc2ccc(N3CCN(S(=O)(=O)N(C)C)CC3)cc2)c1-c1cccc2c(CCCOc3cccc4ccccc34)c(C(=O)O)n(CCN3CCOCC3)c12 (top concentration 50000 nM) | 0.86 | 4.36 | 7.26 | 9.06 | 5.26 | 4.16 | 2.46 | 2.16 | 5.86 | 8.16 | 3.86 | -0.74 | 10.1 | 7.86 | 5.06 | 6.96 | 5.46 | 4.26 | 6.76 | 3.16
COc1cccc2c1c(O)c(C(=O)N(C)c1ccc(C(F)(F)F)cc1)c(=O)n2C [Tasquinimod] (top concentration 10000 nM) | -0.42 | -0.42 | 3.48 | -0.42 | 16.6 | 0.48 | -0.42 | -0.42 | -0.42 | -0.22 | -0.42 | -0.42 | -0.42 | 0.88 | 0.68 | -0.42 | -0.42 | -0.42 | -0.42 | -0.32
CC(C)(C)c1cc(NC(=O)Nc2ccc(-c3cn4c(n3)sc3cc(OCCN5CCOCC5)ccc34)cc2)no1 [Quizartinib] (top concentration 1000 nM) | -1.52 | 0.98 | 3.48 | 0.98 | 5.48 | 2.78 | 3.18 | 5.18 | -1.52 | 3.68 | 17.8 | -1.52 | 7.58 | 2.38 | -1.52 | -1.02 | -1.02 | 1.38 | 0.18 | 0.98
Cc1c(N)nc([C@H](CC(N)=O)NC[C@H](N)C(N)=O)nc1C(=O)N[C@H](C(=O)N[C@H](C)[C@@H](O)[C@H](C)C(=O)N[C@H](C(=O)NCCc1nc(-c2nc(C(=O)NCCC[S+](C)C)cs2)cs1)[C@@H](C)O)[C@@H](O[C@@H]1O[C@@H](CO)[C@@H](O)[C@H](O)[C@@H]1O[C@H]1O[C@H](CO)[C@@H](O)[C@H](OC(N)=O)[C@@H]1O)c1c[nH]cn1 [Bleomycin] (top concentration 10000 nM) | 4.34 | 4.74 | -1.36 | 1.04 | 7.84 | 8.04 | 8.44 | -1.86 | -0.96 | 1.94 | 1.14 | 6.44 | 7.34 | 3.14 | 4.54 | 0.94 | -1.56 | 5.74 | -0.56 | 1.94
COc1ccc(CCc2nc3cc(-c4c(C)noc4C)ccc3n2C[C@H](C)N2CCOCC2)cc1Cl [SGC-CBP30] (top concentration 25000 nM) | 0.38 | 2.48 | 4.68 | 4.28 | 16.4 | 0.28 | 3.98 | 1.88 | 2.18 | 4.98 | 4.78 | -2.12 | 6.18 | 5.88 | 1.68 | 4.58 | -0.62 | 0.08 | 1.68 | 3.08
CC#CC(=O)N1CC[C@@H](n2c(=O)n(-c3ccc(Oc4ccccc4)cc3)c3c(N)ncnc32)C1 [Tirabrutinib] (top concentration 1000 nM) | 1.2 | 0 | 0 | 0 | 3.7 | 1.8 | 6.5 | 0 | 0 | 2.5 | 0 | 2.9 | 4.1 | 0 | 1.5 | 0 | 3.7 | 0 | 0 | 0
CS(=O)(=O)c1ccc(-c2cnc(N)c(C(=O)Nc3ccccc3)n2)cc1 [VE-821] (top concentration 10000 nM) | 2.54 | -0.66 | 4.94 | -0.66 | 11.2 | 4.74 | 4.54 | 5.04 | 1.64 | 1.54 | 2.54 | -0.66 | 8.74 | 7.84 | -0.66 | 0.74 | -0.66 | -0.66 | 3.14 | -0.56
O=C(/C=C/c1cccnc1)NCCCCC1CCN(C(=O)c2ccccc2)CC1 [Daporinad] (top concentration 1000 nM) | 14.7 | 16.3 | 9.46 | 8.56 | 9.76 | 17 | 7.26 | 7.96 | 8.76 | 18.4 | 12.1 | 8.66 | 19.8 | 11.4 | 7.66 | 4.66 | 15.9 | 15.6 | 9.16 | 18.4
CCOC(=O)CCNc1cc(N2CCc3ccccc3CC2)nc(-c2ccccn2)n1 [GSK-J4] (top concentration 100000 nM) | -9.38 | -8.08 | -4.58 | -6.68 | 3.22 | -7.08 | 7.72 | 1.62 | -5.98 | -7.28 | -11.8 | -10.8 | -8.88 | -7.18 | -8.98 | -3.98 | -9.18 | -9.98 | -7.68 | -7.58
Cc1cnc(Nc2ccc(OCCN3CCCC3)cc2)nc1Nc1cccc(S(=O)(=O)NC(C)(C)C)c1 [Fedratinib] (top concentration 10000 nM) | -6.96 | -0.76 | 0.84 | -1.76 | 4.64 | -2.26 | -1.96 | 0.14 | -2.06 | 0.04 | 4.94 | -6.16 | -0.76 | -0.26 | -1.36 | -0.06 | -1.56 | -1.26 | -2.56 | -3.06
C[C@@H](Oc1cc(-n2cnc3ccc(CN4CCN(C)CC4)cc32)sc1C(N)=O)c1ccccc1C(F)(F)F (top concentration 10000 nM) | 25.5 | 20.5 | 23.4 | 22.7 | 14.7 | 20.5 | 16.6 | 11.6 | 22.8 | 28.8 | 11 | 15 | 19.9 | 18.4 | -3.18 | 24.8 | 5.82 | 15.8 | 21.9 | 26.7
Cc1sc2c(c1C)C(c1ccc(Cl)cc1)=N[C@@H](CC(=O)OC(C)(C)C)c1nnc(C)n1-2 [JQ1] (top concentration 10000 nM) | -0.88 | 9.72 | -1.08 | 1.32 | 12.1 | -3.08 | 6.12 | 1.32 | -0.48 | 9.32 | 7.22 | -5.08 | 11.7 | 9.62 | 8.52 | -0.58 | 0.42 | 4.32 | 5.12 | 5.22
CC(=O)c1cnc2ccc(-c3cc(Cl)c(O)c(Cl)c3)nc2c1N[C@H]1CC[C@H](CN(C)C)CC1 [OTS167] (top concentration 1000 nM) | 9.38 | 5.48 | 2.08 | 2.48 | 6.58 | 3.78 | 1.88 | -0.42 | -3.52 | 0.58 | 5.88 | 4.58 | 5.68 | 3.18 | 2.58 | 2.78 | -8.72 | -1.52 | -3.32 | -2.62
CNC(=O)c1ccccc1Nc1nc(Nc2ccc3c(c2OC)CCC[C@H](N2CCN(CCO)CC2)C3)ncc1Cl (top concentration 5000 nM) | 2.06 | 2.86 | 1.36 | -2.54 | 8.86 | -1.54 | 0.46 | 1.66 | -2.54 | 1.26 | 5.66 | -3.24 | 0.76 | 1.66 | -0.94 | 1.56 | -3.34 | -1.04 | -2.84 | -2.54
